Measured values: ChEMBL document CHEMBL5120884, “Complex Flavanones from Cryptocarya metcalfiana and Structural Revision of Oboflavanone A” (J Nat Prod, 2022)

What follows are compounds tested on HCT-116 (assay: Cytotoxicity against human HCT-116 cells incubated for 48 hrs by MTT assay). Details: HCT-116, 48 h.
Assay type: functional, cell-based

SMILES | IC50
O=C1C=CC[C@H](C[C@@H]2C[C@@H]3C[C@@](/C=C/c4ccccc4)(Oc4cc5c(c(O)c43)C(=O)C[C@@H](c3ccccc3)O5)O2)O1 | 7.2 µM
COC(=O)CCC[C@@H]1C[C@@H]2C[C@@](CCc3ccccc3)(Oc3cc4c(c(O)c32)C(=O)C[C@H](c2ccccc2)O4)O1 | > 10 µM
O=C(O)CCC[C@@H]1C[C@@H]2C[C@@](/C=C/c3ccccc3)(Oc3cc4c(c(O)c32)C(=O)C[C@@H](c2ccccc2)O4)O1 | > 10 µM
O=C1C=CC[C@H](C[C@@H]2C[C@@H]3C[C@@](CCc4ccccc4)(Oc4cc5c(c(O)c43)C(=O)C[C@@H](c3ccccc3)O5)O2)O1 | 6.1 µM
COC(=O)CCC[C@@H]1C[C@@H]2C[C@@](CCc3ccccc3)(Oc3cc4c(c(O)c32)C(=O)C[C@@H](c2ccccc2)O4)O1 | > 10 µM
O=C1CCC[C@@H]2C[C@H](C[C@](O)(/C=C/c3ccccc3)O2)c2c(cc(O)c3c2O[C@@H](c2ccc(O)cc2)CC3=O)O1 | 4.5 µM
O=C1CCC[C@@H]2C[C@H](C[C@](O)(/C=C/c3ccccc3)O2)c2c(cc(O)c3c2O[C@H](c2ccc(O)cc2)CC3=O)O1 | 4.2 µM
O=C1C=CC[C@H](C[C@@H]2C[C@@H]3C[C@@](CCc4ccccc4)(Oc4cc5c(c(O)c43)C(=O)C[C@H](c3ccccc3)O5)O2)O1 | 5.8 µM
O=C(O)CCC[C@@H]1C[C@@H]2C[C@@](/C=C/c3ccccc3)(Oc3cc4c(c(O)c32)C(=O)C[C@H](c2ccccc2)O4)O1 | > 10 µM
